Key:
Type in all cases: cell-based
human P2X7 receptor = molecular target: T1, human P2X7 receptor (Homo sapiens, UniProt Q99572); assay: Ethidium+ accumulation assay in human P2X7-expressing HEK293 cells; conditions: 10 μM compound, ethidium+ accumulation induced by 6 μM BzATP, n = 3
T1 construct: EST clones containing full-length cDNAs of mouse P2X1 (clone ID: 4189541) and human P2X7 receptor (clone ID: 5286944); host or cells: HEK293
T1 sequence (Q99572 1-595): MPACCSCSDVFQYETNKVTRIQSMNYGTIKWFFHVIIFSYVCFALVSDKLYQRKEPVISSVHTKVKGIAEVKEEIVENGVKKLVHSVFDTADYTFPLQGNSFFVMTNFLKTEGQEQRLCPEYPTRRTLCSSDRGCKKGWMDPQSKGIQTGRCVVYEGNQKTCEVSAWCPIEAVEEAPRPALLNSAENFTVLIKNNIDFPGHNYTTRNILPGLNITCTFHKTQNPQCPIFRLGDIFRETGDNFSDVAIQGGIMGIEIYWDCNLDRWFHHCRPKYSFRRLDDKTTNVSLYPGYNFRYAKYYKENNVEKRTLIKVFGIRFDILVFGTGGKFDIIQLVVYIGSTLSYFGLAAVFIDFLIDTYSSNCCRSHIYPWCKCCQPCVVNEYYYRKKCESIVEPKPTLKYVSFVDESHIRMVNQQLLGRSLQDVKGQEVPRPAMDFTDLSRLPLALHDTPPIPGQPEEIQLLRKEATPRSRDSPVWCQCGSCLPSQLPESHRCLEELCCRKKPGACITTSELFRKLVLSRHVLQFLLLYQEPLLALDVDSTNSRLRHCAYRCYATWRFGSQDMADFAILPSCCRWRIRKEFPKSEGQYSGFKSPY
Experimental: 1-2. Ethidium^+ Accumulation Assay at Human P2X7 Receptors
Human P2X7-expressing HEK293 cells were grown as monolayer culture at 37° C. in a humidified atmosphere of 5% CO2, DMEM supplemented with 10% fetal bovine serum. Cells were harvested with treatment of Trypsin/EDTA solution, collected by centrifugation (200 g for 5 min).
The cells were resuspended at 2.5×10^6 cells/mL in assay buffers, consisting of (in mM) HEPES 10, KCl 140, glucose 5, EDTA 1 (pH 7.4), and then ethidium bromide (100 μM) was added. Cell suspensions were added to 96 well plates containing the P2X7 receptor agonist, ATP or BzATP, at 2×10^5 cells/wells. Plates were incubated at 37° C. for 120 min and cellular accumulation of ethidium^+ was determined by measuring fluorescence with Bio-Tek instrument FL600 fluorescent plate reader (excitation wavelength of 530 nm and emission wavelength of 590 nm). When the effects of antagonists, such as PPADS, KN62, and test peptides were studied, antagonists were treated together with agonist without pre-incubation.

human P2X3 receptor = molecular target: T2, human P2X3 receptor (Homo sapiens, UniProt P56373); assay: Two-electrode voltage clamp, ATP-induced ion current in Xenopus oocytes expressing human P2X3; conditions: for inhibition at 10 µM: read-out: % inhibition hP2X3; for inhibition at 0.1 µM: concentration of 100 nM, receptor not stated in the sentence (follows FIG. 2B, human P2X3), read-out: % inhibition; for Hill coefficient: concentration-inhibitory curve, 2 μM ATP (FIG. 1C, FIG. 2B); for IC50: concentration-response curve, 2 μM ATP, mean of four observations, read-out: IC50 value
T2 construct: expressed in transfected cells; host or cells: Xenopus oocytes (cRNA injected); cDNA from the Max-Planck Institute laboratory (Dr. W. Stuhmer and Dr. F. Soto)
T2 sequence (P56373 1-397): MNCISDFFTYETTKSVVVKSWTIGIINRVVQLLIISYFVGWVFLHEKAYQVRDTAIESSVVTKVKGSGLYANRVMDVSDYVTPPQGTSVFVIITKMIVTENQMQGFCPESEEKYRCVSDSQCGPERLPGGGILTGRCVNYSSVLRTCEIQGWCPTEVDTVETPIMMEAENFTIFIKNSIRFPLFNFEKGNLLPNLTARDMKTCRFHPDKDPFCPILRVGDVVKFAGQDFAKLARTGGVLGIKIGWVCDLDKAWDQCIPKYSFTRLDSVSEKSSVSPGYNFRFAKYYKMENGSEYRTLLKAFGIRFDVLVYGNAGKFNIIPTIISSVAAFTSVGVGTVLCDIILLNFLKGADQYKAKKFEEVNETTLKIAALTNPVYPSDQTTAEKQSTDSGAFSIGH
Experimental: Antagonistic Activity at Recombinant Mouse P2X1 and Human P2X3 Receptors
(§1) Xenopus oocytes were harvested and prepared with method as previously described in publications. Defolliculated oocytes were injected cytosolically with mouse P2X1 and human P2X3 receptor cRNA ([…], 1 μg/mL), respectively, incubated for 24 hrs at 18° C. in Barth's solution and kept for up to 12 days at 4° C. until used in electrophysiological experiments. ATP-activated membrane currents (Vh=−70 mV) were recorded from cRNA-injected oocytes using the twin-electrode voltage-clamp technique (Axoclamp 2B amplifier). Voltage recording (1-2 MΩ tip resistance) and current-recording microelectrodes (5 MΩ tip resistance) were filled with 3.0 M KCl. Oocytes were held in an electrophysiological chamber and superfused with Ringer's solution (5 mL/min, at 18° C.) containing (mM) NaCl, 110; KCl, 2.5; HEPES, 5; BaCl2, 1.8, adjusted to pH 7.5. ATP was superfused over the oocytes for 60-120s then washed out for a period of 20 min. For inhibition curves, data were normalized to the current evoked by ATP, at pH 7.5. Test substances were added for 20 min prior to ATP exposure; all peptides were tested for reversibility of their effects. The concentration required to inhibit the ATP response by 50% (IC50) was taken from Hill plots constructed using the formula: log(I/Imax−1), where I is the current evoked by ATP in the presence of an antagonist. Data are presented as mean±SEM (n=4) for the data from different batches of oocytes.

mouse P2X1 receptor = molecular target: T3, mouse P2X1 receptor (Mus musculus, UniProt P51576); assay: Two-electrode voltage clamp, ATP-induced ion current in Xenopus oocytes expressing mouse P2X1; conditions: for inhibition at 10 µM / % inhibition mP2X1: Table 2, 10 μM compound, ion current induced by 2 μM ATP, mean ± SEM, n = 4; for inhibition at 10 µM: read-out: % inhibition mP2X1; for Hill coefficient: concentration-inhibitory curve, 2 μM ATP (FIG. 1B, FIG. 2A); for IC50: concentration-response curve, 2 μM ATP, mean of four observations, read-out: IC50 value
T3 construct: EST clones containing full-length cDNAs of mouse P2X1 (clone ID: 4189541) and human P2X7 receptor (clone ID: 5286944); host or cells: Xenopus oocytes (cRNA injected)
T3 sequence (P51576 1-399): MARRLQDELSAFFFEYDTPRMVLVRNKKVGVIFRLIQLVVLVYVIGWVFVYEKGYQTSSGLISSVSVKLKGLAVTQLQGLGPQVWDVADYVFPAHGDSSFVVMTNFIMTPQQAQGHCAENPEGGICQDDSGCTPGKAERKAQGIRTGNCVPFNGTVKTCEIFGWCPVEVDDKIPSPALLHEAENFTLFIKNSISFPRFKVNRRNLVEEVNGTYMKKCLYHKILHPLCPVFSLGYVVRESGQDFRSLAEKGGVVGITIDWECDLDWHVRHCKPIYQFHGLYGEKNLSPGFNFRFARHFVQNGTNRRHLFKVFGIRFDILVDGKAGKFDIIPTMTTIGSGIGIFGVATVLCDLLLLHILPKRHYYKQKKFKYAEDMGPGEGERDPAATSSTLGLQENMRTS
Experimental: 1-1. Antagonistic Activity at Recombinant Mouse P2X1 and Human P2X3 Receptors
as §1

[1] = Table 2, 10 μM compound, ion current induced by 2 μM ATP, mean ± SEM, n = 4

| % inhibition hP2X7 (human P2X7 receptor) | inhibition at 10 µM (human P2X3 receptor; [1]) | inhibition at 10 µM (mouse P2X1 receptor) | inhibition at 0.1 µM (human P2X3 receptor) | Hill coefficient (human P2X3 receptor) | IC50 (human P2X3 receptor) | % inhibition mP2X1 (mouse P2X1 receptor) | Hill coefficient (mouse P2X1 receptor) | IC50 (mouse P2X1 receptor) | % inhibition hP2X3 (human P2X3 receptor; [1]) | Compound |
| --- | --- | --- | --- | --- | --- | --- | --- | --- | --- | --- |
| inactive | 31.4 ± 6.2% | 54.2 ± 10.6% |  |  |  |  |  |  |  | Cc1nc(Cc2ccccc2)c(C(=O)O)c(C(=O)O)c1O [Compound 35, 2-Benzyl-5-hydroxy-6-methyl-pyridine-3,4-dicarboxylic acid] |
| inactive | 51 ± 9.8% | 77% | 38.3% | −0.63±0.20 | 432 nM | 73.4 ± 9.7% | −1.03±0.21 | 361 nM |  | Cc1nc(CCc2ccccc2)c(C(=O)O)c(C(=O)O)c1O [Compound 36, 5-Hydroxy-6-methyl-2-phenethyl-pyridine-3,4-dicarboxylic acid] |
| inactive | 59.8 ± 4.6% | 78% |  |  |  | 77.0 ± 3.8% |  |  |  | COc1ccc(CCc2nc(C)c(O)c(C(=O)O)c2C(=O)O)cc1 [Compound 37, 5-Hydroxy-2-[2-(4-methoxy-phenyl)ethyl]-6-methyl-pyridine-3,4-dicarboxylic acid] |
| inactive | 48.4 ± 9% | 71.4 ± 4.3% | 19.2% | −0.52±0.12 | 782 nM |  | −0.98±0.11 | 509 nM |  | Cc1nc(C=Cc2ccccc2)c(C(=O)O)c(C(=O)O)c1O [Compound 38, 5-Hydroxy-6-methyl-2-styryl-pyridine-3,4-dicarboxylic acid] |
| inactive | 68.9 ± 11.7% | 82% | 34% | −0.58±0.27 | 339 nM | 82.7 ± 6.0% | −1.00±0.09 | 186 nM |  | Cc1nc(CCc2ccc(C(=O)O)cc2)c(C(=O)O)c(C(=O)O)c1O [Compound 39, 2-[2-(4-Carboxy-phenyl)-ethyl]-5-hydroxy-6-methyl-pyridine-3,4-dicarboxylic acid] |
| inactive | 39.3 ± 3.8% | 52.4 ± 6.2% |  |  |  |  |  |  |  | COc1cccc(CCc2nc(C)c(O)c(C(=O)O)c2C(=O)O)c1 [Compound 40, 5-Hydroxy-2-[2-(3-methoxy-phenyl)-ethyl]-6-methyl-pyridine-3,4-dicarboxylic acid] |
| inactive | 34.5 ± 4.3% | 49.8 ± 5.4% |  |  |  |  |  |  |  | COc1ccccc1CCc1nc(C)c(O)c(C(=O)O)c1C(=O)O [Compound 41, 5-Hydroxy-2-[2-(2-methoxy-phenyl)-ethyl]-6-methyl-pyridine-3,4-dicarboxylic acid] |
| inactive | 18.3 ± 6.4% | 46% |  |  |  | 44.2 ± 4.0% |  |  |  | CC(=O)c1c(O)c(C)nc(Cc2ccccc2)c1C(=O)O [Compound 44, 4-acetyl-2-benzyl-5-hydroxy-6-methylnicotinic acid] |
| inactive | 37.3 ± 10% | 47.9 ± 8.1% |  |  |  |  |  |  |  | CC(=O)c1c(O)c(C)nc(CCc2ccccc2)c1C(=O)O [Compound 45, 4-acetyl-5-hydroxy-6-methyl-2-phenethylnicotinic acid] |
| inactive | 42.2 ± 7.5% | 52 ± 7.1% |  |  |  |  |  |  |  | COc1ccc(CCc2nc(C)c(O)c(C(C)=O)c2C(=O)O)cc1 [Compound 46, 4-acetyl-5-hydroxy-2-(4-methoxyphenethyl)-6-methylnicotinic acid] |
| inactive | 27.4 ± 5.5% | 40.4 ± 1.3% |  |  |  |  |  |  |  | CC(=O)c1c(O)c(C)nc(/C=C/c2ccccc2)c1C(=O)O [Compound 47, (E)-4-acetyl-5-hydroxy-6-methyl-2-styrylnicotinic acid] |
| inactive | 15.8 ± 9% | 29.9 ± 5.7% |  |  |  |  |  |  |  | COc1cccc(/C=C/c2nc(C)c(O)c(C(C)=O)c2C(=O)O)c1 [Compound 48, (E)-4-acetyl-5-hydroxy-2-(3-methoxystyryl)-6-methylnicotinic acid] |
| inactive | 6.3 ± 2.3% | 11.4 ± 3.3% |  |  |  |  |  |  |  | COc1ccccc1/C=C/c1nc(C)c(O)c(C(C)=O)c1C(=O)O [Compound 49, (E)-4-acetyl-5-hydroxy-2-(2-methoxystyryl)-6-methylnicotinic acid] |
| inactive | 67.9 ± 5.2% | 48.3 ± 4.1% |  |  |  |  |  |  |  | Cc1nc(Cc2cccc3ccccc23)c(C(=O)O)c(C(=O)O)c1O [Compound 50, 5-Hydroxy-6-methyl-2-(naphthalene-1-ylmethyl)pyridine-3,4-dicarboxylic acid] |
| inactive |  |  |  |  |  | 53.9 ± 5.1% |  |  | 62.9 ± 7.1% | Cc1nc(CC(c2ccccc2)c2ccccc2)c(C(=O)O)c(C(=O)O)c1O [Compound 51, 2-(2,2,-diphenylethyl)5-hydroxy-6-methylpyridine-3,4-dicarboxylic acid] |
| inactive | 70.5 ± 4.7% | 50.9 ± 6.1% |  |  |  |  |  |  |  | COc1ccc(CCc2nc(C)c(O)c(C=O)c2CCC(=O)O)cc1 [Compound 61, 3-(4-formyl-5-hydroxy-2-(4-methoxyphenethyl)-6-methylpyridin-3-yl)propanoic acid] |

From patent publication US9546139B2, “Pyridine carboxylic acid based compound used as a P2X1 and P2X3 receptor antagonist, a production method for the same and a composition comprising the same” (GWANGJU INSTITUTE OF SCIENCE AND TECHNOLOGY, priority 2010, dated 2017)
